Data: patent US9346818B2 (priority 2012, dated 2016)
Entries after “also recorded” stand apart in the source; their conditions may differ. Where a name gives a salt, the structure may show the parent alone. Read-outs that look alike come from different tables or passages of the source.

Columns and labels:
[1] = system: malonaldehyde (MDA); assay: Biochemical indicators of brain tissues (MDA assay) in scopolamine mice; type: in vivo; conditions: 5 mg/kg; for MDA(nmol/mgprot): brain tissue homogenate
Description: After the behavior test was complete, the mice were sacrificed, brain tissues were collected (operated on an ice plate) and prepared into 10% of tissue homogenate with pre-cooled physiological saline, centrifuged (3000 rpm, 10 min), and the supernatant was subjected to malonaldehyde (MDA) assay following the kits.

[2] = system: learning and memory disorder of mice induced by scopolamine; assay: Morris water maze test, senile dementia mice model induced by scopolamine; type: in vivo; conditions: for latent period day 1 / latent period day 2 / latent period day 3 / latent period day 4 / latent period day 5 / times of crossing platform: Table 4, 5 mg/kg intragastric, scopolamine 1 mg/kg
[3] = target: acetylcholinesterase (Homo sapiens (Human), UniProt P22303); assay: biochemical; type: biochemical; conditions: for potency on acetylcholinesterase compared with positive control drug donepezil hydrochloride: enzymology level; for IC50: read-out: IC50 (nM), inhibition activity on acetylcholinesterase
acetylcholinesterase, sequence (P22303 32-614, species assumed): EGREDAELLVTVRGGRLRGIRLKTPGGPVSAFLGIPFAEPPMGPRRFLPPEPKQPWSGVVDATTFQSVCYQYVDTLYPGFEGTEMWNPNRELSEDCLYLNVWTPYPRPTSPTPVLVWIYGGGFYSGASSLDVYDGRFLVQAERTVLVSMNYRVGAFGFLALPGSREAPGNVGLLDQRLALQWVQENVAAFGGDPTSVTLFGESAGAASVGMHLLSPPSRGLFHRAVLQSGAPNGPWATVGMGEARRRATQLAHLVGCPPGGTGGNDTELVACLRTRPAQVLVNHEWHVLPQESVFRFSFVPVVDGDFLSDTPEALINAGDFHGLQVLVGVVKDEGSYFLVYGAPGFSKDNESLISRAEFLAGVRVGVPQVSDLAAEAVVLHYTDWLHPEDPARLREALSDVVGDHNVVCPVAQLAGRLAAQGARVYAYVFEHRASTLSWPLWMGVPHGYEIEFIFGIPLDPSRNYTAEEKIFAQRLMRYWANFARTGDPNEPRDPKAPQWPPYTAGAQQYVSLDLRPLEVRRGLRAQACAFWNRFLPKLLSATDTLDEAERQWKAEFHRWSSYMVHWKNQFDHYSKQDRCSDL

[4] = rat, in vivo, po, 5 mg/kg
Description: 0.3 ml of whole blood was collected at corresponding time point, anticoagulating with heparin, centrifuged at 4000 rpm for 10 min, the plasma was separated, 50 μL the plasma sample of rats was collected, 100 μL acetonitrile (containing 0.1% formic acid) was added, mixed under vortex for 1 min, centrifuged (12000 rpm) for 10 min, the supernatant was collected, analyzed with liquid chromatography-mass spectrometer, the area of peaks were recorded and used for the calculation of blood drug concentration, and the drug-time curve was plotted.

[5] = in vivo; conditions: mouse, in vivo
Description: (§1) Firstly, preliminary tests were performed, in order to determine the concentration of each compound, with just 0% mortality or just 100% mortality, before starting the formal tests. The animals were divided into groups by weight, various dosages of drugs were administered between 0%-100%. Dosage volume: 10 ml/kg. Dosage manner: intravenous injection or intragastric administration.
(§2) The animals were divided into 6 groups, with 5 animals per group.
(§3) The animals were divided into 6 groups, with 5 animals per group. […] Each animal was fasted 12 h before administration.
(§4) The animals were divided into 5 groups, with 5 animals per group.
(§5) The animals were divided into 5 groups, with 5 animals per group. […] Each animal was fasted 12 h before administration.
(§6) The toxic reaction and death of the animals after administration were observed, and mortality was counted. The results were analyzed with LD50 data processing software.

[6] = system: white mice; assay: in vivo; conditions: for Mortality (%) / Number of death: 5 animals
Description: as §1, §2, §3, §4, §5, §6

[7] = system: learning and memory disorder induced by intracerebroventricular injection of Aβ1-42; assay: Morris water maze test, rats with intracerebroventricular injection of Aβ1-42; type: in vivo; conditions: Aβ1-42 rats
Description: The model of learning and memory disorder induced after intracerebroventricular injection of Aβ1-42 is the most common animal model for evaluating whether a compound has the effect of improving the learning and memory. […] Morris water maze test and the model of learning and memory disorder induced by intracerebroventricular injection of Aβ1-42 were employed in the present research, and the improvement effects of I-33 on learning and memory of rats at various concentration (0.7 mg/Kg, 3.5 mg/Kg, and 7 mg/Kg) were evaluated.
SD, male (220±20 g), the animals were fed in light: dark cycle (12 h/12 h) in a cleaning level of animal room, ad lib. The tests were performed after 3 days acclimation in the animal room. Aβ1-42 was formulated to 2 μg/μl according to the instruction of specification.
(1) Normal group: intracerebroventricular injection of physiological saline
(2) Model group with intracerebroventricular injection of Aβ1-42: intracerebroventricular injection of Aβ1-42
(4) I-33 (low concentration group): I-33 (0.7 mg/Kg)+intracerebroventricular injection of Aβ1-42
(5) I-33 (medium concentration group): I-33 (3.5 mg/Kg)+intracerebroventricular injection of Aβ1-42
(6) I-33 (high concentration group): I-33 (7 mg/Kg)+intracerebroventricular injection of Aβ1-42
Each rat in normal control group received intracerebroventricular injection of 5 μl of physiological saline, each rat in the other groups received intracerebroventricular injection of 5 μl of Aβ1-42. After the operation, the rats received the following tests after 1 week recovery period. […] The drugs were administered for 8 days, the training for water maze test was started on the 5th day, and the water maze test was formally started on the 9th day.

[8] = Intragastric administration 122.88 mg/kg
[9] = Intragastric administration 153.60 mg/kg
[10] = Intragastric administration 240.00 mg/kg
[11] = Intragastric administration 300.00 mg/kg
[12] = Intravenous injection 16.40 mg/kg
[13] = Intravenous injection 18.23 mg/kg
[14] = Intravenous injection 20.25 mg/kg
[15] = Intravenous injection 23.04 mg/kg
[16] = Intravenous injection 25.60 mg/kg
[17] = DPH 3 mg/Kg, I-33 all dosages tested

SMILES: CC1(C)c2cc3c(cc2C(=O)N1CCC1CCN(Cc2cccc(F)c2)CC1)OCO3 [Compound I-15, 6-[2-[1-[(3-fluorophenyl)methyl]-4-piperidyl]ethyl]-7,7-dimethyl-[1,3]dioxolo[4,5-f]isoindol-5-one]
- MDA(nmol/mgprot) [1]: 7.41 ± 2.1 nmol/mgprot
- latent period day 1 [2]: 60 ± 0 s
- latent period day 2 [2]: 58.9 ± 4.4 s
- latent period day 3 [2]: 56.5 ± 8.3 s
- latent period day 4 [2]: 57.8 ± 5.3 s
- latent period day 5 [2]: 51.1 ± 10.9 s
- times of crossing platform [2]: 1.9 ± 1.5
- potency on acetylcholinesterase compared with positive control drug donepezil hydrochloride ([3]; in vitro): relative low activity
- IC50 ([3]; modified Ellman method): > 2000 nM

SMILES: O=C1c2cc3c(cc2C2(CC2)N1CCC1CCN(Cc2ccccn2)CC1)OCO3 [Compound I-35, 6-[2-[1-(2-pyridylmethyl)-4-piperidyl]ethyl]spiro[[1,3]dioxolo[4,5-f]isoindole-7,1′-cyclopropane]-5-one phosphate]
- MRT(0-t) [4]: 2.343 ± 0.206
- MRT(0-∞) [4]: 2.483 ± 0.265
- t1/2z [4]: 1.965 ± 0.296
- IC50 ([3]; modified Ellman method): 601 nM

SMILES: O=C1c2cc3c(cc2C2(CC2)N1CCC1CCN(Cc2ccccn2)CC1)OCO3 [Compound I-29, 6-[2-[1-(2-pyridylmethyl)-4-piperidyl]ethyl]spiro[[1,3]dioxolo[4,5-f]isoindole-7,1′-cyclopropane]-5-one]
- content of MDA in brains / antioxidation effect [1]: significant antioxidation effect
- MDA(nmol/mgprot) [1]: 6.66 ± 1.75 nmol/mgprot
- effect on learning and memory disorder of mice induced by scopolamine ([2]; Morris water maze, in comparison with model group / donepezil hydrochloride group): stronger effects of improving learning and memory
- latent period day 1 [2]: 59.3 ± 2.7 s
- latent period day 2 [2]: 54.6 ± 12.5 s
- latent period day 3 [2]: 48.0 ± 15.8 s
- latent period day 4 [2]: 46.0 ± 16.3 s
- latent period day 5 [2]: 40.4 ± 21.6 s
- times of crossing platform [2]: 1.5 ± 1.4
- inhibition activity on acetylcholinesterase in vitro relative to donepezil hydrochloride ([3]; in vitro): about 10%
- potency on acetylcholinesterase compared with positive control drug donepezil hydrochloride ([3]; in vitro): even lower
- IC50 [3]: 903 nM

SMILES: Cl.O=C1c2cc3c(cc2C2(CC2)N1CCC1CCN(Cc2ccccc2)CC1)OCO3 [Compound I-34, 6-[2-(1-benzyl-4-piperidyl)ethyl]spiro[[1,3]dioxolo[4,5-f]isoindole-7,1′-cyclopropane]-5-one hydrochloride]
- LD50 ([5]; iv): 20.1 mg/kg
- LD50 ([5]; po): 171 mg/kg
- Mortality (%) [6, 8]: 0%
- Number of death [6, 8]: 0
- Mortality (%) [6, 9]: 40%
- Number of death [6, 9]: 2
- Mortality (%) [6, 10]: 80%
- Number of death [6, 10]: 4
- Mortality (%) [6, 11]: 100%
- Number of death [6, 11]: 5
- Mortality (%) [6, 12]: 0%
- Number of death [6, 12]: 0
- Mortality (%) [6, 13]: 20%
- Number of death [6, 13]: 1
- Mortality (%) [6, 14]: 60%
- Number of death [6, 14]: 3
- Mortality (%) [6, 15]: 80%
- Number of death [6, 15]: 4
- Mortality (%) [6, 16]: 100%
- Number of death [6, 16]: 5
- median lethal dose by oral and intravenous administration, times of those of donepezil hydrochloride ([6]; oral and intravenous): 4-7 times
- toxicity compared with donepezil hydrochloride ([6]; preliminary acute toxicity tests): lower toxicity than donepezil hydrochloride
- potency on acetylcholinesterase compared with positive control drug donepezil hydrochloride ([3]; in vitro, hydrochloride): slightly lower potency than the positive control drug; also recorded: comparable inhibition activity on acetylcholinesterase with donepezil hydrochloride
- IC50 [3]: 197 nM

SMILES: Cc1ccccc1CN1CCC(CCN2C(=O)c3cc4c(cc3C23CC3)OCO4)CC1 [Compound I-23, 6-[2-[1-(o-tolylmethyl)-4-piperidyl]ethyl]spiro[[1,3]dioxolo[4,5-f]isoindole-7,1′-cyclopropane]-5-one]
- MDA(nmol/mgprot) [1]: 6.53 ± 2.3 nmol/mgprot
- latent period day 1 [2]: 57.8 ± 5.4 s
- latent period day 2 [2]: 57.7 ± 7.1 s
- latent period day 3 [2]: 55.5 ± 8.8 s
- latent period day 4 [2]: 43.9 ± 14.1 s
- latent period day 5 [2]: 51.8 ± 10.9 s
- times of crossing platform [2]: 1.5 ± 1.5
- potency on acetylcholinesterase compared with positive control drug donepezil hydrochloride ([3]; in vitro): even lower
- IC50 ([3]; modified Ellman method): 959 nM

SMILES: CC1(C)c2cc3c(cc2C(=O)N1CCC1CCN(Cc2ccccc2F)CC1)OCO3 [Compound I-14, 6-[2-[1-[(2-fluorophenyl)methyl]-4-piperidyl]ethyl]-7,7-dimethyl-[1,3]dioxolo[4,5-f]isoindol-5-one]
- MDA(nmol/mgprot) [1]: 7.36 ± 1.3 nmol/mgprot
- latent period day 1 [2]: 57.1 ± 7.6 s
- latent period day 2 [2]: 60 ± 0 s
- latent period day 3 [2]: 60 ± 0 s
- latent period day 4 [2]: 54.2 ± 8.9 s
- latent period day 5 [2]: 49.9 ± 14.7 s
- times of crossing platform [2]: 1.3 ± 1.8
- potency on acetylcholinesterase compared with positive control drug donepezil hydrochloride ([3]; in vitro): relative low activity
- IC50 [3]: > 2000 nM

SMILES: COc1cc2c(cc1OC)C(=O)C(CC1CCN(Cc3ccccc3)CC1)C2 (centres unmarked) [DPH, donepezil hydrochloride, reference compound]
- The period of reaching the platform for the first time (latent period) ([7]; 3 mg/Kg intragastric, 8 days): 23.94 ± 4.84
- times of crossing platform ([7]; 3 mg/Kg intragastric, 8 days): 3.22 ± 0.55
- effect on period required for reaching the platform for the first time (latent period) [7, 17]: significantly shorten the period required for reaching the platform for the first time
- effect on times of crossing the platform [7, 17]: significantly increases the times of crossing the platform
